Results on seven compounds are retold here after patent publication US20210163485A1, “Heterocyclic Compounds for the Treatment of Disease” (Oppilan Pharma Ltd., priority 2017, published 2021).

For the assay, the target named is T1, full-length human S1P1 (Homo sapiens, UniProt P21453).
T1 construct: CHO-K1 Gαqi5 cells expression full-length human S1P1; expressed in transfected cells; host or cells: CHO-K1 Gαqi5 cells (membrane preparation)
T1 sequence (P21453 whole entry): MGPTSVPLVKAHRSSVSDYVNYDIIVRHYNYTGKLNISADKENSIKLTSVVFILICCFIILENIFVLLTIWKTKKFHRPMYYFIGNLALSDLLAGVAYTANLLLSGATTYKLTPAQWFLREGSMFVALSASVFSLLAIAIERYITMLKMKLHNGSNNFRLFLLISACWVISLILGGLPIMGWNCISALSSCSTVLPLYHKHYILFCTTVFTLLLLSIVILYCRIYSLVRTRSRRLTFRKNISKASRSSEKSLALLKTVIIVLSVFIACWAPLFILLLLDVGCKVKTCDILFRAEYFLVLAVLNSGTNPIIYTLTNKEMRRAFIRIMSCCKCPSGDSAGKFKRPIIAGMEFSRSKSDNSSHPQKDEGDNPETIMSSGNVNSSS
Description: GTPγS binding assay (scintillation proximity assay) with S1P1 membranes. The class given is biochemical. To be noted: S1P1 membrane from CHO-K1 Gαqi5 cells; GTPγ35S SPA, 60 minutes incubation. The protocol: S1P1 membrane is prepared from CHO-K1 Gαqi5 cells expression full-length human S1P1. Scintillation proximity assay (SPA) is performed by incubating membranes, GTPγ^35S, and compounds at various concentrations for 60 minutes. Wheat germ agglutinin-coated SPA beads are added and incubated for 60 minutes before centrifugation and scintillation counting.
In general, EC50 refers to the concentration needed to bring the measured effect to its halfway point. A lower EC50 goes with higher potency in that assay. For the compound `CC(CO)Oc1cc(Cl)c(-c2noc(-c3cn4cc(C(F)(F)F)ncc4n3)n2)cc1Cl` (stereo not shown) [Compound 7, 2-(2,5-dichloro-4-(5-(6-(trifluoromethyl)imidazo[1,2-a]pyrazin-2-yl)-1,2,4-oxadiazol-3-yl)phenoxy)propan-1-ol], the 50% effective concentration (EC50) was below 0.1 µM.
The result for `OC[C@H](O)COc1cc(Cl)c(-c2noc(-c3cn4cc(C(F)(F)F)ncc4n3)n2)cc1Cl` [Compound 8, (S)-3-(2,5-dichloro-4-(5-(6-(trifluoromethyl)imidazo[1,2-a]pyrazin-2-yl)-1,2,4-oxadiazol-3-yl)phenoxy)propane-1,2-diol] reads below 0.1 µM; that for `OC[C@@H](O)COc1cc(Cl)c(-c2noc(-c3cn4cc(C(F)(F)F)ncc4n3)n2)cc1Cl` [Compound 9, (R)-3-(2,5-dichloro-4-(5-(6-(trifluoromethyl)imidazo[1,2-a]pyrazin-2-yl)-1,2,4-oxadiazol-3-yl)phenoxy)propane-1,2-diol], below 0.1 µM; that for `N[C@@H](CO)COc1cc(Cl)c(-c2noc(-c3cn4nc(C(F)(F)F)ccc4n3)n2)cc1Cl` [Compound 19, (S)-2-amino-3-(2,5-dichloro-4-(5-(6-(trifluoromethyl)imidazo[1,2-b]pyridazin-2-yl)-1,2,4-oxadiazol-3-yl)phenoxy)propan-1-ol], below 0.1 µM.
The result for `CC(CO)Oc1cc(Cl)c(-c2noc(-c3cn4nc(C(F)(F)F)ccc4n3)n2)cc1Cl` (stereo not shown) [Compound 21, 2-(2,5-dichloro-4-(5-(6-(trifluoromethyl)imidazo[1,2-b]pyridazin-2-yl)-1,2,4-oxadiazol-3-yl)phenoxy)propan-1-ol] reads 0.1 to 1 µM.
The value for `OC[C@H](O)COc1cc(Cl)c(-c2noc(-c3cn4nc(C(F)(F)F)ccc4n3)n2)cc1Cl` [Compound 22, (S)-3-(2,5-dichloro-4-(5-(6-(trifluoromethyl)imidazo[1,2-b]pyridazin-2-yl)-1,2,4-oxadiazol-3-yl)phenoxy)propane-1,2-diol] was 0.1 to 1 µM; that for `N[C@@H](CO)COc1cc(Cl)c(-c2noc(-c3cn4cc(C(F)(F)F)ncc4n3)n2)cc1Cl` [Compound 24, (S)-2-amino-3-(2,5-dichloro-4-(5-(6-(trifluoromethyl)imidazo[1,2-a]pyrazin-2-yl)-1,2,4-oxadiazol-3-yl)phenoxy)propan-1-ol] was below 0.1 µM.
